The values that follow come from patent US11179397B2, “Imidazopyrimidine derivatives” (Gilead Sciences, Inc., priority 2018, dated 2021).

Experiment [1] concerns the target SHP-2 full length protein (Homo sapiens (Human), UniProt Q06124). Description: SHP-2 biochemical DiFMUP pseudosubstrate-fluorogenic assay. The following applies: 0.2 nM SHP-2, 1 μM IRS-1 activator peptide, 50 μM DiFMUP; read-out: SHP2 IC50. Summed up:
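In-house recombinant full-length SHP-2 preincubated 90 min at room temperature with compounds (1:3 series, 10,000–0.005 nM), then DiFMUP substrate added at 50 μM final for 30 min more. Fluorescence normalised to DMSO wells (100%) and IC50 derived by curve fitting.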

Experiment [2] relates to NCI-H358 cells. Description: NCI-H358 3D tumor spheroid growth inhibition. The format is cell-based. The following applies: Homo sapiens, NCI-H358, 168 h, read-out: H358 EC50. Summed up:
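Cells seeded at 1000/well in ultra-low-attachment plates at 37 °C, 5% CO2 to form spheroids, then incubated a further 7 days with compounds. Viability by 3D CellTiter Glo luminescence; % inhibition versus DMSO wells, with normalized cellular IC50 reported as EC50.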

[3] abbreviates: 3D spheroids, 7 days, 3D CellTiter Glo, cellular IC50 designated EC50.

Like-named read-outs stand apart in the source and are kept apart here.

Sequence of SHP-2 full length protein (Q06124 whole entry): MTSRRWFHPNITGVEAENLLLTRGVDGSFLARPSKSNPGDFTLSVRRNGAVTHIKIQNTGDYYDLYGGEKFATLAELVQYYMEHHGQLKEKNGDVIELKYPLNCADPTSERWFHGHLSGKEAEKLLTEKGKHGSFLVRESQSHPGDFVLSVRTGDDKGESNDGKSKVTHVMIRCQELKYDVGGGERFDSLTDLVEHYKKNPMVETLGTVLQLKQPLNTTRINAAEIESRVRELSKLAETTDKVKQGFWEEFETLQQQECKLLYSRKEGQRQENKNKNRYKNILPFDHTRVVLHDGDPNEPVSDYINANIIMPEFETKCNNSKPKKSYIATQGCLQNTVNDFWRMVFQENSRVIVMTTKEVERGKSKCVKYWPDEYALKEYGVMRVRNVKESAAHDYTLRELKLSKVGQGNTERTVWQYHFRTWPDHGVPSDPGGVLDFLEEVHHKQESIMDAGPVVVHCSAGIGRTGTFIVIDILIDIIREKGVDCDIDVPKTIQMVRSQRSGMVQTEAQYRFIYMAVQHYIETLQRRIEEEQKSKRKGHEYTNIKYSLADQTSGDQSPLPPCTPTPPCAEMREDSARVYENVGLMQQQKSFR

A word on the IC50: it is the midpoint of a concentration-inhibition curve. The term EC50 denotes the concentration needed to bring the measured effect to its halfway point. As to `C[C@@H]1OCC2(CCN(c3ncc(Sc4ccnc5sccc45)c4nccn34)CC2)[C@@H]1N` [Example 102, (3S,4S)-3-methyl-8-(8-(thieno[2,3-b]pyridin-4-ylthio)imidazo[1,2-c]pyrimidin-5-yl)-2-oxa-8-azaspiro[4.5]decan-4-amine], the IC50 in experiment [1] amounted to 4 nM. Moreover, in experiment [2] (setting [3]), the EC50 worked out at 66 nM.
The like results for `C[C@@H]1OCC2(CCN(c3ncc(Sc4ccnc5c(Br)cccc45)c4nccn34)CC2)[C@@H]1N` [Example 103] were, in that order, 4.6 nM and 150 nM.
In the same order, the values of `C[C@@H]1OCC2(CCN(c3ncc(Sc4ccnc5c(N)cccc45)c4nccn34)CC2)[C@@H]1N` [Example 104, (3S,4S)-8-(8-((8-aminoquinolin-4-yl)thio)imidazo[1,2-c]pyrimidin-5-yl)-3-methyl-2-oxa-8-azaspiro[4.5]decan-4-amine] are 4.2 nM and 74 nM.
The like results for `COC(=O)c1cccc2c(Sc3cnc(N4CCC5(CC4)CO[C@@H](C)[C@H]5N)n4ccnc34)ccnc12` [Example 105, methyl 4-((5-((3S,4S)-4-amino-3-methyl-2-oxa-8-azaspiro[4.5]decan-8-yl)imidazo[1,2-c]pyrimidin-8-yl)thio)quinoline-8-carboxylate] were, in that order, 82 nM and 760 nM.
`C[C@@H]1OCC2(CCN(c3ncc(Sc4ccnc5ccsc45)c4nccn34)CC2)[C@@H]1N` [Example 106, (3S,4S)-3-methyl-8-(8-(thieno[3,2-b]pyridin-7-ylthio)imidazo[1,2-c]pyrimidin-5-yl)-2-oxa-8-azaspiro[4.5]decan-4-amine]: in experiment [1], the IC50 came out at 4.2 nM. Besides, in experiment [2] (setting [3]), the EC50 is 39 nM.
Turning to `C[C@@H]1OCC2(CCN(c3ncc(Sc4cccc5cnsc45)c4nccn34)CC2)[C@@H]1N` [Example 107, (3S,4S)-8-(8-(benzo[d]isothiazol-7-ylthio)imidazo[1,2-c]pyrimidin-5-yl)-3-methyl-2-oxa-8-azaspiro[4.5]decan-4-amine], in experiment [1], the IC50 was found to be 3.7 nM. The EC50 in experiment [2] (setting [3]) was 64 nM.
The like results for `CSc1c(Cl)cccc1Sc1cnc(N2CCC3(CC2)CO[C@@H](C)[C@H]3N)n2ccnc12` [Example 108, (3S,4S)-8-(8-((3-chloro-2-(methylthio)phenyl)thio)imidazo[1,2-c]pyrimidin-5-yl)-3-methyl-2-oxa-8-azaspiro[4.5]decan-4-amine] were, in that order, 3.3 nM and 87 nM.
In the same order, the values of `C[C@@H]1OCC2(CCN(c3ncc(Sc4ccnc5c(-n6cncn6)cccc45)c4nccn34)CC2)[C@@H]1N` [Example 109, (3S,4S)-8-(8-((8-(1H-1,2,4-triazol-1-yl)quinolin-4-yl)thio)imidazo[1,2-c]pyrimidin-5-yl)-3-methyl-2-oxa-8-azaspiro[4.5]decan-4-amine] are 18 nM and 260 nM.
The like results for `C[C@@H]1OCC2(CCN(c3ncc(Sc4ccnc5c(C(=O)O)cccc45)c4nccn34)CC2)[C@@H]1N` [Example 110, 4-((5-((3S,4S)-4-amino-3-methyl-2-oxa-8-azaspiro[4.5]decan-8-yl)imidazo[1,2-c]pyrimidin-8-yl)thio)quinoline-8-carboxylic acid] were, in that order, 190 nM and 930 nM.
Take `C[C@@H]1OCC2(CCN(c3ncc(Sc4cc(N)nc5ccccc45)c4nccn34)CC2)[C@@H]1N` [Example 111, (3S,4S)-8-(8-((2-aminoquinolin-4-yl)thio)imidazo[1,2-c]pyrimidin-5-yl)-3-methyl-2-oxa-8-azaspiro[4.5]decan-4-amine]: in experiment [1], the IC50 is 7.1 nM. Moreover, in experiment [2] (setting [3]), the EC50 was determined as 170 nM.
In the same order, the values of `CC(=O)Nc1cccc2c(Sc3cnc(N4CCC5(CC4)CO[C@@H](C)[C@H]5N)n4ccnc34)ccnc12` [Example 112, N-(4-((5-((3S,4S)-4-amino-3-methyl-2-oxa-8-azaspiro[4.5]decan-8-yl)imidazo[1,2-c]pyrimidin-8-yl)thio)quinolin-8-yl)acetamide] are 10 nM and 56 nM.
In the same order, the values of `C[C@@H]1OCC2(CCN(c3ncc(Sc4ccnc5c(C(N)=O)cccc45)c4nccn34)CC2)[C@@H]1N` [Example 113, 4-((5-((3S,4S)-4-amino-3-methyl-2-oxa-8-azaspiro[4.5]decan-8-yl)imidazo[1,2-c]pyrimidin-8-yl)thio)quinoline-8-carboxamide] are 11 nM and 340 nM.
The like results for `C[C@@H]1OCC2(CCN(c3ncc(Sc4ccnc5ccccc45)c4nccn34)CC2)[C@@H]1N` [Example 114, (3S,4S)-3-methyl-8-(8-(quinolin-4-ylthio)imidazo[1,2-c]pyrimidin-5-yl)-2-oxa-8-azaspiro[4.5]decan-4-amine] were, in that order, 6.8 nM and 64 nM.
As to `C[C@@H]1OCC2(CCN(c3ncc(Sc4ccnc5ccc(F)cc45)c4nccn34)CC2)[C@@H]1N` [Example 115, (3S,4S)-8-(8-((6-fluoroquinolin-4-yl)thio)imidazo[1,2-c]pyrimidin-5-yl)-3-methyl-2-oxa-8-azaspiro[4.5]decan-4-amine], in experiment [1], the IC50 came out at 8.4 nM. For the same compound, the EC50 in experiment [2] (setting [3]) turned out to be 90 nM.
The like results for `C[C@@H]1OCC2(CCN(c3ncc(Sc4ccnc5cc(F)ccc45)c4nccn34)CC2)[C@@H]1N` [Example 116, (3S,4S)-8-(8-((7-fluoroquinolin-4-yl)thio)imidazo[1,2-c]pyrimidin-5-yl)-3-methyl-2-oxa-8-azaspiro[4.5]decan-4-amine] were, in that order, 8 nM and 72 nM.
On to `C[C@@H]1OCC2(CCN(c3ncc(Sc4ncnc5ccccc45)c4nccn34)CC2)[C@@H]1N` [Example 117, (3S,4S)-3-methyl-8-(8-(quinazolin-4-ylthio)imidazo[1,2-c]pyrimidin-5-yl)-2-oxa-8-azaspiro[4.5]decan-4-amine], for which the IC50 in experiment [1] is more than 10000 nM. Further, the EC50 in experiment [2] (setting [3]) is more than 12500 nM.
The like results for `NCC1CCN(c2ncc(Sc3cccc(Cl)c3Cl)c3nccn23)CC1` [Example 119, (1-(8-((2,3-dichlorophenyl)thio)imidazo[1,2-c]pyrimidin-5-yl)piperidin-4-yl)methanamine] were, in that order, 73 nM and 2200 nM.
In the case of `C[C@@H]1OCC2(CCN(c3ncc(Sc4ccc(C(N)=O)c5ccccc45)c4nccn34)CC2)[C@@H]1N` [Example 120, 4-((5-((3S,4S)-4-amino-3-methyl-2-oxa-8-azaspiro[4.5]decan-8-yl)imidazo[1,2-c]pyrimidin-8-yl)thio)-1-naphthamide], in experiment [1], the IC50 came to 26 nM. The EC50 in experiment [2] (setting [3]) amounted to 500 nM.
Take `Nc1nccc(Sc2cnc(N3CCC4(CC3)Cc3ccccc3[C@H]4N)n3ccnc23)c1Cl` [Example 121, (S)-1′-(8-((2-amino-3-chloropyridin-4-yl)thio)imidazo[1,2-c]pyrimidin-5-yl)-1,3-dihydrospiro[indene-2,4′-piperidin]-1 amine]: the IC50 in experiment [1] came to 4.8 nM. The EC50 in experiment [2] is 4.2 nM.
In the case of `C[C@@H]1OCC2(CCN(c3ncc(Sc4ccnc5c(F)cccc45)c4nccn34)CC2)[C@@H]1N` [Example 122, (3S,4S)-8-(8-((8-fluoroquinolin-4-yl)thio)imidazo[1,2-c]pyrimidin-5-yl)-3-methyl-2-oxa-8-azaspiro[4.5]decan-4-amine], in experiment [1], the IC50 was determined as 9.1 nM. Further, the EC50 in experiment [2] (setting [3]) was 70 nM.
As to `COc1ccc2c(Sc3cnc(N4CCC5(CC4)CO[C@@H](C)[C@H]5N)n4ccnc34)ccnc2c1` [Example 123, (3S,4S)-8-(8-((7-methoxyquinolin-4-yl)thio)imidazo[1,2-c]pyrimidin-5-yl)-3-methyl-2-oxa-8-azaspiro[4.5]decan-4-amine], the IC50 in experiment [1] amounted to 6.8 nM. Moreover, in experiment [2] (setting [3]), the EC50 was 95 nM.
For the compound `NC1Cc2ccccc2C12CCN(c1ncc(Sc3cccc(Cl)c3Cl)c3nccn13)CC2` (stereo not shown) [Example 124, 1′-(8-((2,3-dichlorophenyl)thio)imidazo[1,2-c]pyrimidin-5-yl)-2,3-dihydrospiro[indene-1,4′-piperidin]-2-amine], the IC50 in experiment [1] came out at 23 nM. Also, the EC50 in experiment [2] (setting [3]) was found to be 750 nM.
In the case of `C[C@@H]1OCC2(CCN(c3ncc(Sc4ccnc5cnccc45)c4nccn34)CC2)[C@@H]1N` [Example 126, (3S,4S)-8-(8-((1,7-naphthyridin-4-yl)thio)imidazo[1,2-c]pyrimidin-5-yl)-3-methyl-2-oxa-8-azaspiro[4.5]decan-4-amine], the IC50 in experiment [1] turned out to be 15 nM. The EC50 in experiment [2] (setting [3]) was found to be 120 nM.
In the same order, the values of `C[C@@H]1OCC2(CCN(c3ncc(Sc4ccnc5ccc(C#N)cc45)c4nccn34)CC2)[C@@H]1N` [Example 127, 4-((5-((3S,4S)-4-amino-3-methyl-2-oxa-8-azaspiro[4.5]decan-8-yl)imidazo[1,2-c]pyrimidin-8-yl)thio)quinoline-6-carbonitrile] are 30 nM and 270 nM.
Take `C[C@@H]1OCC2(CCN(c3ncc(Sc4ccnc5cccnc45)c4nccn34)CC2)[C@@H]1N` [Example 128, (3S,4S)-8-(8-((1,5-naphthyridin-4-yl)thio)imidazo[1,2-c]pyrimidin-5-yl)-3-methyl-2-oxa-8-azaspiro[4.5]decan-4-amine]: the IC50 in experiment [1] amounted to 14 nM. In experiment [2] (setting [3]), the EC50 amounted to 59 nM.
In the same order, the values of `C[C@@H]1OCC2(CCN(c3ncc(Sc4cccc5ncccc45)c4nccn34)CC2)[C@@H]1N` [Example 129, (3S,4S)-3-methyl-8-(8-(quinolin-5-ylthio)imidazo[1,2-c]pyrimidin-5-yl)-2-oxa-8-azaspiro[4.5]decan-4-amine] are 10 nM and 150 nM.
